Experimental data: article PMC5889558, “The inhibition of human lung fibroblast proliferation and differentiation by Gs-coupled receptors is not predicted by the magnitude of cAMP response” (Respiratory Research, 2018)

Columns and labels:
[1] = test system: human lung fibroblasts (HLF); experiment: cAMP accumulation in HLF (HitHunter or AlphaScreen); assay type: cell-based; details: HLF, 2 h, mean ± SEM, NC = not calculated due to incomplete curve; for cAMP pEC50 / EC50: room temperature, 5 μM rolipram (excluded for PDE inhibitors), at least 3 experiments; for cAMP Emax (% max) / Emax: percentage of the maximal forskolin response; for EC50 / Emax: Homo sapiens, Fibroblast; for EC50: read-out: cAMP pEC50 (converted); for Emax: read-out: cAMP Emax (% max)
Description: HLF were grown to confluency in 96-well white ViewPlates, before incubation with a range of agonist concentrations, or vehicle, for 2 h at room temperature in HBSS with 5 mM HEPES, 0.1% w/v HSA, and 5 μM rolipram. […] Rolipram was excluded when measuring cAMP levels in response to PDE inhibitors. cAMP levels were measured using either HitHunter cAMP assay or AlphaScreen competition assay following manufacturer protocol, and were assessed on either a BMG LABTEK ClarioStar or a Packard EnVision plate reader. cAMP concentrations in each well were determined using a standard curve. To account for the inter-assay variation in levels of cAMP produced in each experiment, data were normalized to the maximal forskolin response.

[2] = test system: human lung fibroblasts (HLF); experiment: HLF proliferation by BrdU incorporation (DELFIA), driven by FBS or PDGF; assay type: cell-based; details: 24 h; for maximal level of inhibition of PDGF-driven proliferation: near maximal PDGF; for Proliferation vs PDGF Emax (% max) / Proliferation vs PDGF pEC50 / Proliferation vs serum pEC50 / Proliferation vs serum Emax (% max) / Emax / EC50: inhibition of BrdU incorporation, NC = not calculated due to incomplete curve; for Proliferation vs PDGF pEC50 / Proliferation vs serum pEC50 / EC50: mean ± SEM; for Emax / EC50: Homo sapiens, Fibroblast
Description: (§1) Proliferation of HLF was measured by incorporation of bromodeoxyuridine (BrdU). HLF were seeded overnight at 4000 cells/well in 96-well black ViewPlates, before being starved for 24 h in culture medium devoid of FBS. Proliferation was measured after incubation with a range of concentrations of FBS or PDGF, in DMEM supplemented with 0.1% w/v HSA, for 24 h.
For anti-remodelling assays using BrdU incorporation, cells were incubated for 24 h with a range of concentrations of test compounds in the presence of near maximal concentrations of FBS or PDGF in DMEM supplemented with 0.1% w/v HSA. Proliferation was assessed using the DELFIA BrdU incorporation assay kit following manufacturer protocol. Fluorescence was measured using a Packard EnVision plate reader. To account for the inter-assay variation in levels of proliferation in each experiment, data were normalized to the PDGF or FBS response.

[3] = test system: human lung fibroblasts (HLF); experiment: Fibroblast to myofibroblast transdifferentiation (FMT), αSMA immunofluorescence, TGFβ-driven; assay type: cell-based; details: 48 h, TGFβ 0.3 ng/mL
Description: To assess the differentiation of fibroblasts to the myofibroblast phenotype, immunofluorescence was used to monitor increases in α smooth muscle actin (αSMA). HLF were seeded overnight at 1000 cells/well in 384-well black clear bottom plates, before being starved for 24 h growth medium devoid of FBS.
For anti-remodelling assays using FMT, cells were incubated for 48 h with a range of concentrations of test compounds and incubated for 48 h, at 37°C, 5% CO2 in the presence of a near maximal concentration of TGFβ (0.3 ng/mL), to promote differentiation in DMEM supplemented with 0.1% w/v HSA. Following stimulation, cells were fixed in 4% paraformaldehyde, washed 3× in PBS (with Ca^2+/Mg^2+), and incubated with permeabilising blocking buffer (dPBS (with Ca^2+/Mg^2+), 10% FBS (v/v), 0.1% Triton X-100 (v/v)) for 1 h at 37°C. Wells were then washed 3× in wash buffer (Tris Buffered Saline (TBS), 0.05% (v/v) Tween-20) and incubated with mouse anti-α SMA (1:1000 dilution in permeabilising blocking buffer) for 1 h at room temperature, with gentle shaking. Following 3× wash in wash buffer, wells were incubated with blocking buffer containing Hoechst to stain for nuclear DNA (2 μM), and FITC-conjugated Affini-pure goat […] IgG (1:1000 dilution in blocking buffer) for 30 min at 37°C. Fluorescence was then quantified on a widefield ImageXpress Micro microscope, with a Plan Fluor 20X objective, DAPI filter cube (excitation 400–418 nm, emission 435–470 nm), 50 ms exposure time for nuclei, and FITC filter cube (excitation 467–498 nm, emission 513–556 nm), 200 ms exposure time for αSMA.
To quantify increases in αSMA fluorescence, a standard Multi-Wavelength Cell Scoring algorithm was used in MetaXpress 5.3 software (Molecular Devices, California, USA). To account for the inter-assay variation in levels of αSMA expression produced in each experiment, data were normalized to the response to TGFβ.

[4] = test system: human lung fibroblasts (HLF); experiment: Cell viability assay, caspase-3/7 as marker of apoptosis; assay type: cell-based; details: 24 h
Description: Cell viability was measured using caspase-3/7 expression as a marker of apoptosis after treatment for 24 h with test compounds. HLF were seeded overnight at 6,000 cells/well in 96-well black ViewPlates, before being starved for 24 hours in culture medium devoid of FBS. Cells were incubated for 24 hours in the presence of test compounds at the top concentrations used in the proliferation assays, or in the presence of 100 nM staurosporine to induce apoptosis.
The presence of the apoptotic marker caspase-3/7 was detected by incubating cells with 8 μM CellEvent™ Caspase-3/7 Red Detection Reagent in dPBS with 5 % FBS, for 30 minutes at 37°C. […] Images were analyzed using a multi wavelength cell scoring algorithm within the MetaXpress 5.3 software, which measures cell number using stained nuclei, and percent of these cells positive for caspase-3/7 from Cy5 readouts. To account for the inter-assay variation in levels of caspase 3/7 detected in each experiment, data were normalized to the staurosporine response.
Statistical significance across treatment groups was determined by using the one-way ANOVA with Dunnett’s multiple-comparison post hoc test.

[5] = Agonist concentration remaining after incubation with HLF; assay type: in vitro ADME, human; details: after 24 h incubation with HLF; unpublished data
[6] = test system: human lung fibroblasts (HLF); experiment: HLF proliferation by nuclei count; assay type: cell-based
Description: as §1, with “nuclei count. Human lung fibroblasts (HLF)” for “incorporation of bromodeoxyuridine (BrdU). HLF”, “4,000” for “4000”, “0.1 %” for “0.1%”, “24, 48, 72, or 96 h for nuclei count assay.” for “24 h.”
For anti-remodelling assays, cells were incubated for 48 h with a range of concentrations of test compounds in the presence of an EC80 concentration of FBS (1.8 % v/v). Following stimulation, cells were fixed with 4 % PFA and nuclei stained with Hoechst 33342 (1 μM) for 15 minutes at room temperature. Cells were then washed three times with dPBS before the plate was read using the widefield ImageXpress Micro microscope, with a Plan Fluor 4X objective, DAPI filter cube (excitation 400-418nm, emission 435-470nm), and 50 ms exposure time. Images were analysed using a nuclear count algorithm within the MetaXpress 5.3 software (Molecular Devices, California, USA). To account for the inter-assay variation in levels of proliferation in each experiment, data were normalized to the EC80 FBS response.

[7] = EC80 PDGF, percentage of maximal proliferation observed with PDGF
[8] = EC80 serum, percentage of maximal proliferation observed with serum
[9] = HLF, 1:10 dilution of top conc 30 μM
[10] = EC80 PDGF, percentage of maximal proliferation observed with PDGF, read-out: Proliferation vs PDGF Emax (% max)
[11] = EC80 concentration of PDGF, read-out: Proliferation vs PDGF pEC50 (converted)
[12] = HLF, 1:10 dilution of top conc 10 μM
[13] = HLF, top conc 10 μM, mean ± SEM, n=3
[14] = EC80 concentration of serum, read-out: Proliferation vs serum pEC50 (converted)
[15] = EC80 serum, percentage of maximal proliferation observed with serum, read-out: Proliferation vs serum Emax (% max)

Molecule: N#Cc1c(N)nc(SCC(N)=O)c(C#N)c1-c1ccc(OCC2CC2)cc1 [BAY60–6583]
- cAMP pEC50 [1]: 6.57 ± 0.06
- cAMP Emax (% max) [1]: 10.2 ± 2.89 % max
- inhibition of FBS- and PDGF-driven proliferation (in words) ([2]; BrdU, either stimulus): fully inhibit both FBS- and PDGF-driven proliferation
- maximal level of inhibition of serum-driven proliferation ([2]; BrdU, near maximal FBS): 100%
- maximal level of inhibition of PDGF-driven proliferation ([2]; BrdU): 100%
- Proliferation vs PDGF Emax (% max) [2, 7]: 100 ± 0.01 % max
- Proliferation vs PDGF pEC50 ([2]; EC80 concentration of PDGF): 5.30 ± 0.12
- Proliferation vs serum pEC50 ([2]; EC80 concentration of serum): 5.30 ± 0.16
- Proliferation vs serum Emax (% max) [2, 8]: 100 ± 0.01 % max
- inhibition of TGFβ-driven FMT (in words) [3]: completely inhibit FMT
- % cells positive for caspase-3/7, 1:10 dilution [4, 9]: 1.04 ± 0.38%
- % cells positive for caspase-3/7, Top conc ([4]; HLF, top conc 30 μM): 0.62 ± 0.14%

Molecule: NCCc1ccc(O)c(O)c1 [Dopamine]
- EC50 [1]: 4070 nM
- Emax [1]: 41.2 ± 10%
- Emax [2, 10]: 73.5 ± 13.5%
- EC50 [2, 11]: 16600 nM
- inhibition of TGFβ-driven FMT (in words) [3]: full concentration-response curves could not be established
- % cells positive for caspase-3/7, 1:10 dilution ([4]; human, 3 μM): 1.21 ± 0.34%
- % cells positive for caspase-3/7, Top conc ([4]; human, 30 μM): 0.83 ± 0.14%

Molecule: CC(C)N(CCCCOCC(=O)O)c1cnc(-c2ccccc2)c(-c2ccccc2)n1 [MRE-269]
- EC50 [1]: 178 nM
- Emax [1]: 52.9 ± 4.36%
- Emax [2, 10]: 85.7 ± 7.65%
- EC50 [2, 11]: 316 nM
- inhibition of TGFβ-driven FMT (in words) [3]: completely inhibit FMT
- % cells positive for caspase-3/7, 1:10 dilution [4, 12]: 0.49 ± 0.22%
- % cells positive for caspase-3/7, Top conc [4, 13]: 0.49 ± 0.21%
- original concentration of agonist remaining [5]: > 90%

Molecule: CCNC(=O)[C@H]1O[C@@H](n2cnc3c(N)ncnc32)[C@H](O)[C@@H]1O [NECA]
- cAMP pEC50 [1]: 5.39 ± 0.13
- cAMP Emax (% max) [1]: 47.3 ± 3.40 % max
- maximal level of inhibition of PDGF-driven proliferation ([2]; BrdU): 38%
- Proliferation vs PDGF Emax (% max) [2, 7]: 37.8 ± 14.7 % max
- Proliferation vs PDGF pEC50 ([2]; EC80 concentration of PDGF): 6.94 ± 0.43
- inhibition of TGFβ-driven FMT (in words) [3]: full concentration-response curves could not be established
- % cells positive for caspase-3/7, 1:10 dilution [4, 9]: 0.67 ± 0.09%
- % cells positive for caspase-3/7, Top conc ([4]; HLF, top conc 30 μM): 1.04 ± 0.20%

Molecule: OCc1cc(C(O)CNCCCCCCOCCCCc2ccccc2)ccc1O (stereo not drawn) [Salmeterol]
- EC50 [1]: 0.123 nM
- Emax [1]: 45.8 ± 3.53%
- Emax [2, 10]: 89.2 ± 0.27%
- EC50 [2, 11]: 0.0316 nM
- EC50 [2, 14]: 0.263 nM
- Emax [2, 15]: 37.7 ± 7.33%
- maximal level of inhibition of FMT [3]: 51 % of the TGFβ response
- % cells positive for caspase-3/7, 1:10 dilution ([4]; human, 10 nM): 0.66 ± 0.24%
- % cells positive for caspase-3/7, Top conc ([4]; human, 100 nM): 0.40 ± 0.12%

Molecule: CCCCC[C@H](O)CC[C@@H]1[C@H]2Cc3cccc(OCC(=O)O)c3C[C@H]2C[C@H]1O [Treprostinil]
- EC50 [1]: 151 nM
- Emax [1]: 101 ± 0.58%
- Emax [2, 10]: 63.7 ± 6.39%
- EC50 [2, 11]: 29.5 nM
- EC50 [2, 14]: 102 nM
- Emax [2, 15]: 42.5 ± 5.36%
- % cells positive for caspase-3/7, 1:10 dilution ([4]; human, 1 μM): 0.92 ± 0.25%
- % cells positive for caspase-3/7, Top conc ([4]; human, 10 μM): 0.76 ± 0.06%
- original concentration of agonist remaining [5]: > 90%

Molecule: AGN-205204
- cAMP pEC50 [1]: 6.62 ± 0.12
- cAMP Emax (% max) [1]: 49.7 ± 3.84 % max
- Proliferation vs PDGF Emax (% max) [2, 7]: 101 ± 3.71 % max
- Proliferation vs PDGF pEC50 ([2]; EC80 concentration of PDGF): 7.45 ± 0.25
- Proliferation vs serum pEC50 ([2]; EC80 concentration of serum): 6.91 ± 0.48
- Proliferation vs serum Emax (% max) [2, 8]: 51.3 ± 8.89 % max
- maximal level of inhibition of FMT [3]: 71 % of the TGFβ response
- % cells positive for caspase-3/7, 1:10 dilution [4, 12]: 0.56 ± 0.09%
- % cells positive for caspase-3/7, Top conc [4, 13]: 0.57 ± 0.09%

Molecule: Platelet-derived growth factor [PDGF]
- maximal proliferation (BrdU incorporation) ([2]; normalized to maximal proliferation observed with 10% serum): 41.0 ± 8.62%
- EC50 for stimulation of proliferation (nuclei count) ([6]; 72 h treatment): 3.77 ± 0.13 ng/mL
- EC50 for stimulation of proliferation (nuclei count) ([6]; 96 h treatment): 7.26 ± 3.23 ng/mL
- maximal proliferation (nuclei count) ([6]; 96 h treatment): 29.2 ± 15.2 % of the maximal serum response
